Experimental data published in paper PMC12446627, “Novel Thioredoxin reductase 1 inhibitor BS1801 relieves treatment resistance and triggers endoplasmic reticulum stress by elevating reactive oxygen species in glioma” (Redox Biology, 2025).
Where two headings read alike, the source gives them in different places.

How the values were obtained:
[1] = target: T1, Thioredoxin reductase 1 (TrxR1) (Homo sapiens, UniProt Q16881)
T1 construct: gene TXNRD1

[2] = target: T1, Thioredoxin reductase 1 (TrxR1); experiment: biochemical

T1 sequence (Q16881 whole entry): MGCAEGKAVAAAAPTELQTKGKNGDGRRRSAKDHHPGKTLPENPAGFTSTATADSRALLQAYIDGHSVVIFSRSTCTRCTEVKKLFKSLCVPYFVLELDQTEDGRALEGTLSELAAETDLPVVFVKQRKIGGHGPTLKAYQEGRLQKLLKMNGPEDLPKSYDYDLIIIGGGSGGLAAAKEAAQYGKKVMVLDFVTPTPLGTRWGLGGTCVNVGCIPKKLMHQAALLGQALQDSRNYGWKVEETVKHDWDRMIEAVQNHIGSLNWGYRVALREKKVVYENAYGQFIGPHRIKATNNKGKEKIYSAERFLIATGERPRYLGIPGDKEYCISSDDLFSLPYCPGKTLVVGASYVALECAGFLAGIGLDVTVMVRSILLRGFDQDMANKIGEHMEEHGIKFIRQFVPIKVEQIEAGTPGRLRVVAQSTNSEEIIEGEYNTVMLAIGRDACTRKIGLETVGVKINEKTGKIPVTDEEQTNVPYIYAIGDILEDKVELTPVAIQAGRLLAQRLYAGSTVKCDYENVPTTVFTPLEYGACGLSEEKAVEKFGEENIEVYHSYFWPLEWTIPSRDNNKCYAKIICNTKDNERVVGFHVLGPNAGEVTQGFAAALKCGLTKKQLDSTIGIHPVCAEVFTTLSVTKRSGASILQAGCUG

Row | SMILES | Kd [1] [µM] | Kd [2] [µM]
1 | CC[P](CC)(CC)=[Au][S][C@@H]1O[C@H](COC(C)=O)[C@@H](OC(C)=O)[C@H](OC(C)=O)[C@H]1OC(C)=O [auranofin] | 5.07 | 
2 | O=c1c2ccccc2[se]n1CCCCn1[se]c2ccccc2c1=O [BS1801, 2,2'-(butane-1,4-diyl)bis(benzo[d] [1,2]selenazol-3(2H)-one)] |  | 2.44
